What was measured:
[1] = BCS (Biopharmaceutics Classification System) designation by solubility and permeability; format: physicochemical; set-up: key: BCS Class 1 describes compounds with high permeability and high solubility.; BCS Class 2 describes compounds with high permeability and low solubility.; BCS Class 3 describes compounds with low permeability and high solubility.; BCS Class 4 describes compounds with low permeability and low solubility
Excerpt: We tested a number of model drugs using the acoustic fusion methods, as described infra. The drugs tested are representative BCS Class 2 and Class 4 drugs. The BCS (Biopharmaceutics Classification System) designation is used to group compounds into classes based on their solubility and permeability (BCS guidance “Waiver of In vivo Bioavailability and Bioequivalence Studies for Immediate Release Solid Oral Dosage Forms Based on a Biopharmaceutics Classification System,” U.S. Department of Health and Human Services, Food and Drug Administration):
BCS Class 1 describes compounds with high permeability and high solubility.
BCS Class 2 describes compounds with high permeability and low solubility.
BCS Class 3 describes compounds with low permeability and high solubility.
BCS Class 4 describes compounds with low permeability and low solubility.
Under the BCS Classification System, a drug is considered highly soluble if fully solubilized in 250 mL water at the highest therapeutic dose at any physiological pH. A drug is considered highly permeable if the extent of oral absorption is greater than 90%.

[2] = Rat oral pharmacokinetic study of torcetrapib formulations; format: in vivo; settings: male, Wistar-Han, plasma, rats, 10 mg/kg
Description: The in vivo absorption of Torcetrapib after oral administration of the Torcetrapib-copovidone-TPGS dispersion described in Example 4 was investigated in rats at a dose level of 10 mg/kg. Materials and methods used for the rat pharmacokinetic study are provided below. Crystalline drug powders and drug-polymer dispersion formulations were also evaluated as control formulations. The drug powders and drug-polymer dispersions were dosed as suspensions in 0.5% of methylene cellulose. The Torcetrapib-polymer dispersion was used as a benchmark formulation for enhancing the drug's solubility and oral absorption.
Male Wistar-Han rats were used for oral administration studies. All animals were fasted overnight before dosing, provided water ad libitum, and fed 4 hours following drug treatment. The fasted animals were orally given torcetrapib formulations by gavage (n=3) at a torcetrapib dose of 10 mg/kg. The formulations included a suspension of crystalline torcetrapib powder in 0.5% of methyl cellulose (MC), a suspension of torcetrapib-polymer dispersion in 0.5% of acidified MC (5 mM HCl added to prevent dissolution of the polymer in the vehicle). Serial blood samples were collected at 0.25, 0.5, 1, 2, 4, 8, 12, 18, and 24 hour post-dose and placed into EDTA-containing tubes and centrifuged. […]
Torcetrapib plasma concentrations were determined by LC-MS/MS following protein precipitation with acetonitrile. […] Analyte response was measured by multiple reaction monitoring (MRM) of transitions unique to each compound.
Calibration curves were generated and verified using standard and quality control samples prepared from an initial weighing of high purity compound. […] The limit of quantification was 1 ng/mL. […]
Pharmacokinetic parameters were calculated by established non-compartmental methods. The area under the plasma concentration vs. time curve from time zero to time t(AUC0-t) was determined using the Watson software (version 7.3) with linear trapezoidal interpolation in the ascending slope and logarithmic trapezoidal interpolation in the descending slope.

BCS Class [1] | Tmax ([2]; mean n = 3) [h] | AUC(0-t) ([2]; mean n = 3, read-out: AUC(0-24)) [µM·h] | Cmax ([2]; suspension in 0.5% methyl cellulose, mean n = 3) [nM] | Structure (SMILES)
BCS class 2 | – | – | – | Cc1cccc(C)c1OCC(=O)N[C@@H](Cc1ccccc1)[C@@H](O)C[C@H](Cc1ccccc1)NC(=O)[C@H](C(C)C)N1CCCNC1=O [Lopinavir, (αS)—N-[(1S,3S,4S)-4-[[2-(2,6-Dimethylphenoxy)acetyl]amino]-3-hydroxy-5-phenyl-1-(phenylmethyl)pentyl]tetrahydro-α-(1-methylethyl)-2-oxo-1(2H)-pyrimidineacetamide]
BCS Class 2 | 6 | 0.707 | 84 | CCOC(=O)N1c2ccc(C(F)(F)F)cc2[C@@H](N(Cc2cc(C(F)(F)F)cc(C(F)(F)F)c2)C(=O)OC)C[C@H]1CC [Torcetrapib, (2R,4S)-4-[(3,5-Bis-trifluoromethylbenzyl)methoxycarbonylamino]-2-ethyl-6-trifluoromethyl-3,4-dihydro-2H-quinoline-1-carboxylic acid ethyl ester]

Source: US11344496B2, “Methods for preparing stabilized amorphous drug formulations using acoustic fusion” (Merck Sharp & Dohme Corp., priority 2017, dated 2022)
